Test results as given in patent US7658954B2, “Synergistic antipyretic formulation” (Council of Scientific & Industrial Research, priority 2004, dated 2010).
Marks after values point to notes of the source that are not given here.

System: yeast induced pyrexia
Experiment: Antipyretic effect on yeast induced pyrexia in rats
Assay type: in vivo
Conditions: Paracetamol 150 mg/kg

CC(=O)Nc1ccc(O)cc1 [Paracetamol]
Rectal temperature before and after treatment (0 h): 37.7 ± 0.2 °C | Rectal temperature before and after treatment (1 h): 39.0 ± 0.2 °C | Rectal temperature before and after treatment (2 h): 38.1 ± 0.3 °C | Rectal temperature before and after treatment (3 h): 37.7 ± 0.2^b ° C. | Rectal temperature before and after treatment (4 h): 37.6 ± 0.2 °C
